Experimental data published in US20140200136A1, “Agricultural mixtures comprising arylquinazolinone compounds” (BASF SE, priority 2011, published 2014).
Where two headings read alike, the source gives them in different places.

Assays:
Format in all cases: cell-based
Pyricularia oryzae = conditions: single active
Leptosphaeria nodorum = experiment: Activity against wheat leaf spots caused by Leptosphaeria nodorum (Leptno), microtiter plate test; conditions: single active, 7 days after inoculation
Septoria tritici = experiment: Activity against leaf blotch on wheat caused by Septoria tritici (Septtr), microtiter plate test; conditions: single active

Q: For `O=C(Nc1ccccc1-c1ccc(Cl)cc1)c1cccnc1Cl` [Boscalid], which Observed efficacy (Pyricularia oryzae; 16 ppm) is on record?
A: The Observed efficacy was 8.

Q: `Cc1cc(F)c(-n2cnc3ccc(F)cc3c2=O)cc1[S+]([O-])CC(F)(F)F` (stereo not drawn) [CE.I.31, 6-Fluoro-3-[2-fluoro-4-methyl-5-2(2,2,2-trifluoroethanesulfinyl)-phenyl]-3H-quinazolin-4-one] was tested. Which Observed efficacy (Leptosphaeria nodorum; concentration 63 ppm) did it give?
A: Its Observed efficacy is 19.

Q: And the Observed efficacy (Pyricularia oryzae; 1 ppm)?
A: Its Observed efficacy is 8.

Q: What about the Observed efficacy (Pyricularia oryzae; 4 ppm) of the same molecule?
A: Its Observed efficacy is 11.

Q: What about the Observed efficacy (Pyricularia oryzae; 63 ppm) of the same molecule?
A: Its Observed efficacy is 16.

Q: And the Observed efficacy (Septoria tritici; 63 ppm)?
A: The Observed efficacy was 19.

Q: How did the Observed efficacy (Pyricularia oryzae; 0.25 ppm) turn out when `COC(=O)Nc1nc2ccccc2[nH]1` [Carbendazim] was run?
A: The Observed efficacy was 19.

Q: Which Observed efficacy (Pyricularia oryzae; 0.25 ppm) does the source give for `N#Cc1c(Cl)c(Cl)c(Cl)c(C#N)c1Cl` [Chlorothalonil] here?
A: Its Observed efficacy is 30.

Q: For `Cc1ccc(-c2c(Cl)nc(C#N)n2S(=O)(=O)N(C)C)cc1` [Cyazofamid], which Observed efficacy (Pyricularia oryzae; 1 ppm) is on record?
A: Its Observed efficacy is 10.

Q: With `CO/N=C(/C1=NOCCO1)c1ccccc1Oc1ncnc(Oc2ccccc2Cl)c1F` [Fluoxastrobin] as the molecule, how does the Observed efficacy (Septoria tritici; 0.25 ppm) read?
A: The Observed efficacy was 58.

Q: With `Cn1cc(C(=O)Nc2ccccc2-c2cc(F)c(F)c(F)c2)c(C(F)F)n1` [Fluxapyroxad] as the molecule, how does the Observed efficacy (Septoria tritici; 0.063 ppm) read?
A: The Observed efficacy was 58.

Q: For `CO/C=C(/C(=O)OC)c1ccccc1COc1cccc(C(F)(F)F)n1` [Picoxystrobin], which Observed efficacy (Pyricularia oryzae; 0.016 ppm) is on record?
A: Its Observed efficacy is 19.

Q: With `COC(=O)N(OC)c1ccccc1COc1ccn(-c2ccc(Cl)cc2)n1` [Pyraclostrobin] as the molecule, how does the Observed efficacy (Pyricularia oryzae; 0.004 ppm) read?
A: Its Observed efficacy is 32.

Q: For `CON=C(C(=O)OC)c1ccccc1CON=C(C)c1cccc(C(F)(F)F)c1` [Trifloxystrobin], which Observed efficacy (Pyricularia oryzae; 0.016 ppm) is on record?
A: Its Observed efficacy is 26.

Q: Which Observed efficacy (Leptosphaeria nodorum; concentration 4 ppm) does the source give for “zinc propylenebis(dithiocarbamate) polymer [Propineb, reference compound]” here?
A: The Observed efficacy was 57.
